Results on 22 molecules are retold here after patent publication US8349864B2, “Pyrano [3,2-C] pyridones and related heterocyclic compounds as pharmaceutical agents for treating disorders responsive to apoptosis, antiproliferation or vascular disruption, and the use thereof” (New Mexico Technical Research Foundation, priority 2009, dated 2013).

SMILES strings stand for the structures.

The test system of test [1] is HeLa. The test can be described thus: MTT cell viability assay, HeLa cells. The settings on record: Homo sapiens, 48 h treatment, ± SD, two experiments, 8 replicates. It counts as cell-based.
Test [2] has as its system Jurkat cells. The test can be described thus: Flow cytometric annexin-V/propidium iodide apoptosis assay. It counts as cell-based, human. The settings on record: 5 μM, 36 h. The method, then:
Since many clinically used anticancer agents induce apoptosis in cancer cells, we tested the pyranopyridone analogues for their ability to induce apoptosis in Jurkat (model for human T-cell leukemia) cells using the flow cytometric annexin-V/propidium iodide assay (FIG. 1).
FIG. 1 illustrates induction of apoptosis in Jurkat cells treated for 36 h with DMSO control, colchicine (5 μM) and selected pyridone library analogues (5 μM) in the flow cytometric annexin-V/propidium iodide assay. Error bars represent data
On the technique in general: A flow cytometer gives signals particle by particle.

Test [3] relates to Jurkat cells. Nature of the test: DNA laddering assay. The settings on record: 36 h, 1.5% agarose gel. It counts as cell-based, human. The method, then:
Since endonuclease-mediated cleavage of nuclear DNA resulting in formation of oligonucleosomal DNA fragments (180-200 base pairs long) is a hallmark of apoptosis in many cell types, apoptosis was further investigated with the DNA laddering assay (FIG. 2). Jurkat cells were treated with DMSO (lane A), analogues 40 and 41 (lanes B and C), and paclitaxel (lane D) for 36 h. After that the cellular DNA was isolated and electrophoresed in a 1.5% agarose gel. […] No laddering was observed when the cells were treated with DMSO control.
FIG. 2 illustrates DNA laddering in Jurkat cells after 36 h of treatment. (A) DMSO control, (B) 40 at 1.5 μM, (C) 41 at 1.5 μM, (D) paclitaxel at 0.4 μM, and (E) Molecular weight marker (KB).

The test system of test [4] is MCF-7. The test can be described thus: MTT cell viability assay, MCF-7 cells. Format: cell-based. The following applies: Homo sapiens, MCF7, 48 h treatment, ± SD, two experiments, 8 replicates. On the technique in general: Tetrazolium dyes change colour on reduction, which living cells bring about.
The subject of test [5] is tubulin. Nature of the test: In vitro tubulin polymerization (fluorescence). It counts as biochemical. The following applies: relative to 0.05% DMSO control. From the text: To obtain further support for the proposed antitubulin mechanism of action for our heterocycles, we assessed the effect of pyranoquinolones on in vitro tubulin polymerization. In this assay microtubule formation is monitored by the increase in fluorescence intensity of the reaction mixture.
FIG. 4 illustrates the effect of our compounds on in vitro tubulin polymerization.

Test [6] relates to Jurkat cells. The test can be described thus: Light microscopy of morphological changes. It counts as cell-based, human. The settings on record: 1 μM, 2 h. As to the method: Morphological changes of cells treated with potent analogues can be visually observed with light microscopy (FIG. 3).
FIG. 3 illustrates light microscopy pictures. Treatment of Jurkat cells with 40 (C) and 41 (D) for 2 hours induces formation of finger-like extensions (black arrows) and shriveling (white arrows). 0.1% DMSO (A) and a known anticancer agent (B) were used as controls. All compounds are used at 1 μM. The scale bar indicates 40 μm.

Test [7] deals with Jurkat cells. Nature of the test: Flow cytometric cell cycle analysis (Vybrant Orange staining). It counts as cell-based, human. From the text:
Our libraries of compounds exert their antiproliferative properties through inhibition of tubulin dynamics, thereby inducing mitotic arrest and initiating apoptosis in cancer cells. […] This effect is characteristic of antimitotic agents disrupting microtubule assembly.

For orientation: GI50 means the concentration at which growth is held to half of that of the control. `Cc1cc2c(c(=O)n1C)C(c1cccc(Br)c1)C(C#N)=C(N)O2` (stereo not shown) [Compound 14, 2-Amino-4-(3-bromophenyl)-6,7-dimethyl-5-oxo-5,6-dihydro-4H-pyrano[3,2-c]pyridine-3-carbonitrile]: the concentration for 50% growth inhibition (GI50) in test [1] came to 6500 ± 1300 nM.

Take `Cc1cc2c(c(=O)n1C)C(c1ccc(Cl)c(Cl)c1)C(C#N)=C(N)O2` (stereo not shown) [Compound 15, 2-Amino-4-(3,4-dichlorophenyl)-6,7-dimethyl-5-oxo-5,6-dihydro-4H-pyrano[3,2-c]pyridine-3-carbonitrile]: in test [2], the “induction of apoptosis in Jurkat cells” value is “do not induce apoptosis”. It took 18300 ± 2900 nM to inhibit growth in test [1] by half (GI50).

In the case of `COc1cc(C2C(C#N)=C(N)Oc3c2c(=O)n(C)c2ccccc32)cc(Br)c1O` (stereo not shown) [Compound 40, 2-Amino-4-(3-bromo-4-hydroxy-5-methoxyphenyl)-6-methyl-5-oxo-5,6-dihydro-4H-pyrano[3,2-c]quinoline-3-carbonitrile], the “DNA laddering in Jurkat cells” value in test [3] (1.5 μM) is reported as “characteristic ladder pattern was obtained”. In test [4], this molecule displayed a 50% growth inhibitory concentration (GI50) of 390 ± 160 nM. Besides, in test [5] (25 μM), the “effect on in vitro tubulin polymerization” value (“effect” for short) is listed as “completely suppress tubulin polymerization”. Further, the “morphological (phenotypic) changes of Jurkat cells” value in test [6] is “formation of finger-like extensions and shriveling”. Also, the cell cycle arrest entry in test [7] (Jurkat cell line, flow cytometric cell cycle analysis) was “pronounced cell cycle arrest in the G2/M phase”. Moreover, in test [7] (Jurkat, 1 μM, 24 h, ± SD), the “% relative DNA content G0/G1” value worked out at 27 ± 3%, the “% relative DNA content G2/M” value amounted to 47 ± 3% and the “% relative DNA content S” value was found to be 22 ± 2%. In addition, in test [1], the GI50 is 47 ± 10 nM.

Molecule `Cc1cc2c(c(=O)n1C)C(c1ccc(N(C)C)c(Br)c1)C(C#N)=C(N)O2` (stereo not shown) [Compound 8, 2-Amino-4-[3-bromo-4-(dimethylamino)phenyl]-6,7-dimethyl-5-oxo-5,6-dihydro-4H-pyrano[3,2-c]pyridine-3-carbonitrile] gave a 50% growth inhibitory concentration (GI50) in test [1] of 330 ± 60 nM.

For `Cn1c(=O)c2c(c3ccccc31)OC(N)=C(C#N)C2c1cncc(Br)c1` (stereo not shown) [Compound 3, 2-Amino-4-(5-bromo-3-pyridinyl)-6-methyl-5-oxo-5,6-dihydro-4H-pyrano[3,2-c]quinoline-3-carbonitrile], the 50% growth inhibitory concentration (GI50) turned out to be 15 ± 8 nM in test [4] and 13 ± 3 nM in test [1].

`COc1cc(C2C(C#N)=C(N)Oc3c2c(=O)n(C)c2ccccc32)cc(OC)c1OC` (stereo not shown) [Compound 22, 2-Amino-6-methyl-5-oxo-4-(3,4,5-trimethoxyphenyl)-5,6-dihydro-4H-pyrano[3,2-c]quinoline-3-carbonitrile]: the GI50 in test [4] came out at 1000 ± 300 nM; in test [1] it was 240 ± 20 nM.

Take `COc1cc(C2C(C#N)=C(N)Oc3cc(C)n(C)c(=O)c32)cc(Br)c1O` (stereo not shown) [Compound 11, 2-Amino-4-(3-bromo-4-hydroxy-5-methoxyphenyl)-6,7-dimethyl-5-oxo-5,6-dihydro-4H-pyrano[3,2-c]pyridine-3-carbonitrile]: in test [1], growth was halved (GI50) at 2700 ± 1100 nM.

Turning to `COc1cc(C2C(C#N)=C(N)Oc3cc(C)n(C)c(=O)c32)cc(Br)c1OC(C)=O` (stereo not shown) [Compound 12, 4-(2-Amino-3-cyano-6,7-dimethyl-5-oxo-5,6-dihydro-4H-pyrano[3,2-c]pyridin-4-yl)-2-bromo-6-methoxyphenyl acetate], the GI50 in test [1] is 3500 ± 1300 nM.

On to `CC(=O)O[C@H]1C(=O)[C@@]2(C)[C@H]([C@H](OC(=O)c3ccccc3)[C@]3(O)C[C@H](OC(=O)[C@H](O)[C@@H](NC(=O)c4ccccc4)c4ccccc4)C(C)=C1C3(C)C)[C@]1(OC(C)=O)CO[C@@H]1C[C@@H]2O` [paclitaxel, reference compound], for which the “DNA laddering in Jurkat cells” value in test [3] (0.4 μM) is “characteristic ladder pattern was obtained”. The “effect” value in test [5] (3 μM) is listed as “promotes microtubule formation”.

Regarding `COc1ccc(CCn2c(C)cc3c(c2=O)C(c2cc(OC)c(OC)c(OC)c2)C(C#N)=C(N)O3)cc1OC` (stereo not shown) [Compound 20, 2-Amino-6-(3,4-dimethoxyphenethyl)-7-methyl-5-oxo-4-(3,4,5-trimethoxyphenyl)-5,6-dihydro-4H-pyrano[3,2-c]pyridine-3-carbonitrile], the “induction of apoptosis in Jurkat cells” value in test [2] is listed as “do not induce apoptosis”. In test [1], this molecule showed a concentration for 50% growth inhibition (GI50) of 22700 ± 6400 nM.

`COc1cc(C2C(C#N)=C(N)Oc3c2c(=O)n(C)c2ccccc32)cc(Br)c1OC(C)=O` (stereo not shown) [Compound 4, 4-(2-Amino-3-cyano-6-methyl-5-oxo-5,6-dihydro-4H-pyrano[3,2-c]quinolin-4-yl)-2-bromo-6-methoxyphenyl acetate]: the GI50 in test [4] worked out at 25 ± 60 nM; in test [1] it was 180 ± 20 nM.

With `COc1ccc(C2C(C#N)=C(N)Oc3c2c(=O)n(C)c2ccccc32)cc1Br` (stereo not shown) [Compound 43, 2-Amino-4-(3-bromo-4-methoxyphenyl)-6-methyl-5-oxo-5,6-dihydro-4H-pyrano[3,2-c]quinoline-3-carbonitrile], the concentration for 50% growth inhibition (GI50) amounted to 500 ± 100 nM in test [4] and 410 ± 40 nM in test [1].

For `Cc1cc2c(c(=O)n1C)C(c1ccc(C(C)C)cc1)C(C#N)=C(N)O2` (stereo not shown) [Compound 17, 2-Amino-4-(4-isopropylphenyl)-6,7-dimethyl-5-oxo-5,6-dihydro-4H-pyrano[3,2-c]pyridine-3-carbonitrile], the “induction of apoptosis in Jurkat cells” value in test [2] is given as “do not induce apoptosis”. Besides, in test [1], the concentration for 50% growth inhibition (GI50) was > 100000 nM.

On to `Cn1c(=O)c2c(c3ccccc31)OC(N)=C(C#N)C2c1ccc(F)c(Br)c1` (stereo not shown) [Compound 38, 2-Amino-4-(3-bromo-4-fluorophenyl)-6-methyl-5-oxo-5,6-dihydro-4H-pyrano[3,2-c]quinoline-3-carbonitrile], for which the values for the concentration for 50% growth inhibition (GI50) in test [4] and in test [1] were 810 ± 80 nM and 270 ± 30 nM, respectively.

With `COc1cc(C2C(C#N)=C(N)Oc3c2c(=O)n(C)c2ccccc32)cc([N+](=O)[O-])c1O` (stereo not shown) [Compound 25, 2-Amino-4-(4-hydroxy-3-methoxy-5-nitrophenyl)-6-methyl-5-oxo-5,6-dihydro-4H-pyrano[3,2-c]quinoline-3-carbonitrile], the GI50 in test [4] came to 710 ± 120 nM; in test [1] it was 630 ± 20 nM.

For `COc1cc([C@@H]2c3cc4c(cc3[C@H](O)[C@H]3COC(=O)[C@H]23)OCO4)cc(OC)c1OC` [podophyllotoxin, reference compound], the “effect” value in test [5] (25 μM) was “completely suppress tubulin polymerization”.

In the case of `COc1cc(C2C(C#N)=C(N)Oc3cc(C)n(C)c(=O)c32)cc(Br)c1OC` (stereo not shown) [Compound 9, 2-Amino-4-(3-bromo-4,5-dimethoxyphenyl)-6,7-dimethyl-5-oxo-5,6-dihydro-4H-pyrano[3,2-c]pyridine-3-carbonitrile], halving of growth in test [1] (GI50) required 580 ± 140 nM.

With `Cc1cc2c(c(=O)n1C)C(c1ccc(F)c(Br)c1)C(C#N)=C(N)O2` (stereo not shown) [Compound 13, 2-Amino-4-(3-bromo-4-fluorophenyl)-6,7-dimethyl-5-oxo-5,6-dihydro-4H-pyrano[3,2-c]pyridine-3-carbonitrile], it took 6400 ± 1100 nM to inhibit growth in test [1] by half (GI50).

As for `Cn1c(=O)c2c(c3ccccc31)OC(N)=C(C#N)C2c1cc(Br)cc(Br)c1` (stereo not shown) [Compound 42, 2-Amino-4-(3,5-dibromophenyl)-6-methyl-5-oxo-5,6-dihydro-4H-pyrano[3,2-c]quinoline-3-carbonitrile], the GI50 in test [4] turned out to be 75 ± 7 nM; in test [1] it was 77 ± 6 nM.

Regarding `Cn1c(=O)c2c(c3ccccc31)OC(N)=C(C#N)C2c1cc(Br)c(O)c(Br)c1` (stereo not shown) [Compound 39, 2-Amino-4-(3,5-dibromo-4-hydroxyphenyl)-6-methyl-5-oxo-5,6-dihydro-4H-pyrano[3,2-c]quinoline-3-carbonitrile], the GI50 was found to be 430 ± 10 nM in test [4] and 270 ± 20 nM in test [1].

For `CCOc1c(Br)cc(C2C(C#N)=C(N)Oc3cc(C)n(C)c(=O)c32)cc1OC` (stereo not shown) [Compound 10, 2-Amino-4-(3-bromo-4-ethoxy-5-methoxyphenyl)-6,7-dimethyl-5-oxo-5,6-dihydro-4H-pyrano[3,2-c]pyridine-3-carbonitrile], halving of growth in test [1] (GI50) required 1100 ± 800 nM.

Take `Cn1c(=O)c2c(c3ccccc31)OC(N)=C(C#N)C2c1cccc(Br)c1` (stereo not shown) [Compound 37, 2-Amino-4-(3-bromophenyl)-6-methyl-5-oxo-5,6-dihydro-4H-pyrano[3,2-c]quinoline-3-carbonitrile]: the results for the GI50 in test [4] and in test [1] were 3 ± 1 nM and 740 ± 30 nM, respectively.
